Assay results from patent US20240124418A1 (BioTheryX, Inc., priority 2020, published 2024).

How the values were obtained:
PDE4B = molecular target: T1, PDE4B (Homo sapiens, UniProt Q07343); assay: Protein degradation assay, western blot, PDE4B in A549 cells; assay type: cell-based; details: 24 h treatment, 'as high as about' = upper value for the group, read-out: PDE4B degradation relative to DMSO
T1 construct: endogenous in cells; host or cells: A549
Description: Example B2. Protein Degradation Assay
A549 cells were grown in RPMI 1640 media supplemented with 10% fetal bovine serum, streptomycin, and penicillin. The cells were plated in 6-well plates at 300,000 cells/well in the growth media. After overnight incubation, the cells were treated with DMSO (control) or a compound at predetermined concentrations (e.g., 10 nM, 100 nM, 1 μM, 3 μM, or 10 μM) for 24 h at 37° C. under 5% CO2. Whole cell extracts were prepared using an immunoprecipitation (IP) lysis buffer. The cells were washed once in PBS, and the cell pellets were resuspended in the IP lysis buffer and incubated for 15 min on ice. Cells debris was removed by centrifugation and the cleared whole cell lysates were transferred to new tubes for further analysis.
For a western blot analysis, the whole cell protein extracts were separated on 4-12% SDS-polyacrylamide gels, transferred to nitrocellulose, and probed with primary antibodies. Membranes were subsequently washed and probed with IRDYE® secondary antibodies. The signals were detected using an ODYSSEY® Imaging System. The antibodies used in the assay included anti-PDE4B antibody; anti-PDE4D antibodies (top, bottom, and short isoform); β-actin mouse monoclonal antibody; IRDYE® 680RD goat anti-rabbit antibody; and IRDYE® 800CW goat anti-mouse antibody. The compounds provided herein are PDE4 protein degraders.

TNF-α = assay: Cell-based TNF-α inhibition assay (LPS-induced PBMCs, Meso Scale); details: PBMC, PBMCs pretreated 1 h, LPS 100 ng/mL 18-24 h, percentage of stimulated DMSO control; for inhibition at 0.1 µM: compound concentration 0.1 μM; for inhibition at 1 µM: compound concentration 1 μM
Procedure, shortened: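 Thawed primary PBMCs (200,000 cells/well, RPMI 1640 with 10% FBS) were pretreated with compound for 1 h, then stimulated with 100 ng/mL LPS for 18–24 h. Supernatant TNF-α was measured by Meso Scale, and activity was expressed as percent inhibition relative to the stimulated DMSO control.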

T1 sequence (Q07343 whole entry): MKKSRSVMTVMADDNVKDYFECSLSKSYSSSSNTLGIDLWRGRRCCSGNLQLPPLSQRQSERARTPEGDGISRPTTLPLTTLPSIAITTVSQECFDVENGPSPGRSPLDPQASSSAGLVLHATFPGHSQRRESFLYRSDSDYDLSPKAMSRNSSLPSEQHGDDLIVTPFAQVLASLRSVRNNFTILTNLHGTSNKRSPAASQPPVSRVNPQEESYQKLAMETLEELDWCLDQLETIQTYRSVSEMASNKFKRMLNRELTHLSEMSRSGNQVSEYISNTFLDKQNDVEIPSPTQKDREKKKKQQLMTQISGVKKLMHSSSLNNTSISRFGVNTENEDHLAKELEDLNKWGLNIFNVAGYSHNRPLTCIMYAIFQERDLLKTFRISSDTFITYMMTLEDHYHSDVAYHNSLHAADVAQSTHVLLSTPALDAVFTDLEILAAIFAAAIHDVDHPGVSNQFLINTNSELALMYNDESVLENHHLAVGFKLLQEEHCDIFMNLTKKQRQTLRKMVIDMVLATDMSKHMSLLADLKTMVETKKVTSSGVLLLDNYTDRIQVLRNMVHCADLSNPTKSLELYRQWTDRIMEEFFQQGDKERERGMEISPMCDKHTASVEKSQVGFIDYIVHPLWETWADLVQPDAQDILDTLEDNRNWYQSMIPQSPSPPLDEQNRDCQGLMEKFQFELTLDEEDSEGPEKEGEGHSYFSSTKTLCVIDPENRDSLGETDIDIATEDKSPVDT

Structure (SMILES): CCOc1cc([C@@H](CS(C)(=O)=O)N2C(=O)c3cccc(NC(=O)CCCc4ccc(CCNCc5ccc(OCc6scc7c6CN(C6CCC(=O)NC6=O)C7=O)cc5)cc4)c3C2=O)ccc1OC (stereo partly drawn) [Compound A42, 4-[4-(2-{[(4-{[5-(2,6-Dioxopiperidin-3-yl)-4-oxo-4H,5H,6H-thieno[3,4-c]pyrrol-1-yl]methoxy}phenyl)methyl]amino}ethyl)phenyl]-N-{2-[(1S)-1-(3-ethoxy-4-methoxyphenyl)-2-methanesulfonylethyl]-1,3-dioxo-2,3-dihydro-1H-isoindol-4-yl}butanamide]
- Dmax (PDE4B): ≤ 70%
- inhibition at 0.1 µM (TNF-α): ≥ 60%
- inhibition at 1 µM (TNF-α): ≥ 60%

Structure (SMILES): O=C1CCC(N2Cc3c(cc(F)cc3C3CCN(CCCOc4cc(C(=O)Nc5c(Cl)cncc5Cl)ccc4OC(F)F)CC3)C2=O)C(=O)N1 (stereo not shown) [Compound B11, N-(3,5-Dichloropyridin-4-yl)-4-(difluoromethoxy)-3-(3-(4-(2-(2,6-dioxopiperidin-3-yl)-6-fluoro-1-oxoisoindolin-4-yl)piperidin-1-yl)propoxy)benzamide]
- Dmax (PDE4B): ≤ 70%
- inhibition at 0.1 µM (TNF-α): ≥ 60%
- inhibition at 1 µM (TNF-α): ≥ 60%

Structure (SMILES): CCOc1cc([C@@H](CS(C)(=O)=O)N2C(=O)c3cccc(NC(=O)CCOCCOCCNc4cccc5c4C(=O)N(C4CCC(=O)NC4=O)C5=O)c3C2=O)ccc1OC (stereo partly drawn) [Compound A9, 3-(2-(2-((2-(2,6-Dioxopiperidin-3-yl)-1,3-dioxoisoindolin-4-yl)amino)-ethoxy)ethoxy)-N-(2-((S)-1-(3-ethoxy-4-methoxyphenyl)-2-(methylsulfonyl)ethyl)-1,3-dioxoisoindolin-4-yl)propanamide]
- Dmax (PDE4B): ≤ 70%
- inhibition at 0.1 µM (TNF-α): ≥ 60%
- inhibition at 1 µM (TNF-α): ≥ 60%

Structure (SMILES): CCOc1cc([C@@H](CS(C)(=O)=O)N2C(=O)c3cccc(NC(=O)CCOCCOCCOCCNc4cccc5c4C(=O)N(C4CCC(=O)NC4=O)C5=O)c3C2=O)ccc1OC (stereo partly drawn) [Compound A10, 3-(2-(2-(2-((2-(2,6-Dioxopiperidin-3-yl)-1,3-dioxoisoindolin-4-yl)amino)ethoxy)-ethoxy)ethoxy)-N-(2-((S)-1-(3-ethoxy-4-methoxyphenyl)-2-(methylsulfonyl)ethyl)-1,3-dioxoisoindolin-4-yl)propanamide]
- Dmax (PDE4B): ≤ 70%
- inhibition at 0.1 µM (TNF-α): < 20%
- inhibition at 1 µM (TNF-α): < 20%

Structure (SMILES): CCOc1cc([C@@H](CS(C)(=O)=O)N2C(=O)c3cccc(NC(=O)CC4CN(Cc5ccc(OCc6scc7c6CN(C6CCC(=O)NC6=O)C7=O)cc5)CCO4)c3C2=O)ccc1OC (stereo partly drawn) [Compound A40, 2-{4-[(4-{[5-(2,6-Dioxopiperidin-3-yl)-4-oxo-4H,5H,6H-thieno[3,4-c]pyrrol-1-yl]methoxy}phenyl)methyl]morpholin-2-yl}-N-{2-[(1S)-1-(3-ethoxy-4-methoxyphenyl)-2-methanesulfonylethyl]-1,3-dioxo-2,3-dihydro-1H-isoindol-4-yl}acetamide]
- Dmax (PDE4B): ≤ 70%
- inhibition at 0.1 µM (TNF-α): ≥ 60%
- inhibition at 1 µM (TNF-α): ≥ 60%

Structure (SMILES): O=C1CCC(N2Cc3c(cc(F)cc3C3CCN(CCCCCCCOc4cc(C(=O)Nc5c(Cl)cncc5Cl)ccc4OC(F)F)CC3)C2=O)C(=O)N1 (stereo not shown) [Compound B1, N-(3,5-Dichloropyridin-4-yl)-4-(difluoromethoxy)-3-((7-(4-(2-(2,6-dioxopiperidin-3-yl)-6-fluoro-1-oxoisoindolin-4-yl)piperidin-1-yl)heptyl)oxy)benzamide]
- Dmax (PDE4B): ≤ 70%
- inhibition at 0.1 µM (TNF-α): < 20%
- inhibition at 1 µM (TNF-α): < 20%

Structure (SMILES): O=C1CCC(Nc2cccc(NC(=O)CN3CCN(CCOc4cc(C(=O)Nc5c(Cl)cncc5Cl)ccc4OC(F)F)CC3)c2)C(=O)N1 (stereo not shown) [Compound B24, N-(3,5-Dichloropyridin-4-yl)-4-(difluoromethoxy)-3-(2-(4-(2-((3-((2,6-dioxopiperidin-3-yl)amino)phenyl)amino)-2-oxoethyl)piperazin-1-yl)ethoxy)benzamide]
- Dmax (PDE4B): ≤ 70%
- inhibition at 0.1 µM (TNF-α): ≥ 60%
- inhibition at 1 µM (TNF-α): ≥ 60%

Structure (SMILES): CCOc1cc([C@@H](CS(C)(=O)=O)N2C(=O)c3cccc(NC(=O)CCOCCOCCNCc4ccc(OCc5scc6c5CN(C5CCC(=O)NC5=O)C6=O)cc4)c3C2=O)ccc1OC (stereo partly drawn) [Compound A41, 3-[2-(2-{[(4-{[5-(2,6-Dioxopiperidin-3-yl)-4-oxo-4H,5H,6H-thieno[3,4-c]pyrrol-1-yl]methoxy}phenyl)methyl]amino}ethoxy)ethoxy]-N-{2-[(1S)-1-(3-ethoxy-4-methoxyphenyl)-2-methanesulfonylethyl]-1,3-dioxo-2,3-dihydro-1H-isoindol-4-yl}propanamide]
- Dmax (PDE4B): ≤ 70%
- inhibition at 0.1 µM (TNF-α): 40 to 60%
- inhibition at 1 µM (TNF-α): ≥ 60%

Structure (SMILES): O=C1CCC(N2Cc3c(cc(F)cc3C3CCN(CCCCCCCOc4ccc(C(=O)Nc5c(Cl)cncc5Cl)cc4OCC4CC4)CC3)C2=O)C(=O)N1 (stereo not shown) [Compound B10, 3-(Cyclopropylmethoxy)-N-(3,5-dichloropyridin-4-yl)-4-((7-(4-(2-(2,6-dioxopiperidin-3-yl)-6-fluoro-1-oxoisoindolin-4-yl)piperidin-1-yl)heptyl)oxy)benzamide]
- Dmax (PDE4B): ≤ 70%
- inhibition at 0.1 µM (TNF-α): 20 to 40%
- inhibition at 1 µM (TNF-α): ≥ 60%

Structure (SMILES): CCOc1cc([C@@H](CS(C)(=O)=O)N2C(=O)c3cc(CCCCCCCN4CCC(c5cc(F)cc6c5CN(C5CCC(=O)NC5=O)C6=O)CC4)cc(NC(C)=O)c3C2=O)ccc1OC (stereo partly drawn) [Compound A1, N-(6-(7-(4-(2-(2,6-Dioxopiperidin-3-yl)-6-fluoro-1-oxoisoindolin-4-yl)piperidin-1-yl)heptyl)-2-((S)-1-(3-ethoxy-4-methoxyphenyl)-2-(methylsulfonyl)ethyl)-1,3-dioxoisoindolin-4-yl)acetamide]
- Dmax (PDE4B): ≤ 70%
- inhibition at 0.1 µM (TNF-α): ≥ 60%

Structure (SMILES): CCOc1cc([C@@H](CS(C)(=O)=O)N2C(=O)c3cc(CCCCCCCC4CCN(c5cccc6c5C(=O)N(C5CCC(=O)NC5=O)C6=O)CC4)cc(NC(C)=O)c3C2=O)ccc1OC (stereo partly drawn) [Compound A8, N-(6-(7-(1-(2-(2,6-Dioxopiperidin-3-yl)-1,3-dioxoisoindolin-4-yl)piperidin-4-yl)-heptyl)-2-((S)-1-(3-ethoxy-4-methoxyphenyl)-2-(methylsulfonyl)ethyl)-1,3-dioxoisoindolin-4-yl)acetamide]
- Dmax (PDE4B): ≤ 70%
- inhibition at 0.1 µM (TNF-α): ≥ 60%
- inhibition at 1 µM (TNF-α): ≥ 60%

Structure (SMILES): CCOc1cc([C@@H](CS(C)(=O)=O)N2C(=O)c3cccc(NC(=O)CCCCCCCCC(=O)N[C@H](C(=O)N4C[C@H](O)C[C@H]4C(=O)NCc4ccc(-c5scnc5C)cc4)C(C)(C)C)c3C2=O)ccc1OC [Compound A60, N^1-(2-((S)-1-(3-Ethoxy-4-methoxyphenyl)-2-(methylsulfonyl)ethyl)-1,3-dioxoisoindolin-4-yl)-N^10—((S)-1-((2S,4R)-4-hydroxy-2-((4-(4-methylthiazol-5-yl)benzyl)-carbamoyl)pyrrolidin-1-yl)-3,3-dimethyl-1-oxobutan-2-yl)decanediamide]
- Dmax (PDE4B): ≤ 70%

Structure (SMILES): O=C1CCC(N2C(=O)c3cccc(NCCCCCCCOc4cc(C(=O)Nc5c(Cl)cncc5Cl)ccc4OC(F)F)c3C2=O)C(=O)N1 (stereo not shown) [Compound B6, N-(3,5-Dichloropyridin-4-yl)-4-(difluoromethoxy)-3-((7-((2-(2,6-dioxopiperidin-3-yl)-1,3-dioxoisoindolin-4-yl)amino)heptyl)oxy)benzamide]
- Dmax (PDE4B): ≤ 70%
